From PubChem BioAssay AID434987 (Southern Research Specialized Biocontainment Screening …, 2010) come the findings set out here.

The source made the active and inactive calls. The rule behind the calls is not given here.

This test deals with M. tuberculosis H37Rv growth inhibition with meropenem. Kind of test: dose response, H37Rv, with and without meropenem (AID 434987).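 Note: growth over 7 days at 37 °C before Alamar Blue read on day 9.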
The mark [1] stands for this setting: M. tuberculosis H37Rv growth inhibition, measured here: IC50 without meropenem.
[2] abbreviates: M. tuberculosis H37Rv growth inhibition, measured here: IC90 without meropenem.
Where [3] appears, read: measured here: IC90 with meropenem.

`Cc1ccc2c(Cl)cc(Cl)c(OCc3c(C)noc3C)c2n1`: the IC50 was 25.3 µM. The IC50 under setting [1] was above 100 µM. Further, the IC90 under setting [2] was above 100 µM. For the same molecule, the 90% effect concentration (IC90) under setting [3] was above 100 µM.

For the molecule `Cn1c(SCC(=O)OC2CCCCC2)nnc1-c1ccc2c(c1)OCO2`, the IC50 was 7.93 µM. For the same molecule, the concentration for half-maximal inhibition (IC50) under setting [1] stood at 30.5 µM. For the same molecule, the IC90 under setting [2] was determined as 70 µM. This molecule gave a 90% effect concentration (IC90) under setting [3] of 34.9 µM.

As for `CCn1c(=O)n(CC)c2cc(N3CCCC3)c(NC(=O)c3cc(Br)ccc3OC)cc21`, the IC50 is > 100 µM (inactive). In addition, under setting [1], the half-inhibitory concentration (IC50) was above 100 µM. The molecule also showed an IC90 under setting [2] above 100 µM. Under setting [3], this molecule gave an IC90 above 100 µM.

In the case of `COc1ccc(-c2csc(NC(C)c3nc4cc(Cl)c(Cl)cc4n3CCCO)n2)cc1` (stereo not drawn), the IC50 is 97.3 µM (inactive). For the same molecule, under setting [1], the concentration for half-maximal inhibition (IC50) was above 100 µM. Moreover, the IC90 under setting [2] is above 100 µM. Under setting [3], this molecule had an IC90 above 100 µM.

Turning to `CC(=O)c1ccc(N2CCN(c3ncc(C(F)(F)F)cc3Cl)CC2)cc1`, the IC50 is > 100 µM (inactive). Moreover, the half-inhibitory concentration (IC50) under setting [1] is above 100 µM. Moreover, under setting [2], the IC90 is above 100 µM. In addition, the IC90 under setting [3] was above 100 µM.

As for `Cc1ccnn1CC(=O)N/N=C/c1ccc([N+](=O)[O-])s1`, the IC50 was 91.5 µM (inactive). Moreover, the IC50 under setting [1] turned out to be 88.5 µM. Besides, under setting [2], the 90% effect concentration (IC90) worked out at 95.9 µM. The molecule also had an IC90 under setting [3] above 100 µM.

Consider `Cc1[nH]n(-c2ccccc2)c(=O)c1/C=N/NC(=O)c1cccc([N+](=O)[O-])c1`, for which the IC50 is 5.43 µM. Moreover, the IC50 under setting [1] came to 34.2 µM. For the same molecule, the IC90 under setting [2] is 55.1 µM. The same molecule yielded an IC90 under setting [3] of 70.7 µM.

Consider `COc1cc(/C(C)=N\NC(N)=S)cc(OC)c1OC`, for which the IC50 was 10.2 µM. In addition, the IC50 under setting [1] is above 100 µM. Besides, under setting [2], the IC90 is above 100 µM. In addition, under setting [3], the IC90 was 19.6 µM.

Regarding `O=C(COc1ccccc1[N+](=O)[O-])N(Cc1cccc(Br)c1)C1CCS(=O)(=O)C1` (stereo not drawn), the IC50 is > 100 µM (inactive). Under setting [1], this molecule had an IC50 above 100 µM. Under setting [2], this molecule yielded an IC90 above 100 µM. The IC90 under setting [3] is above 100 µM.

Take `COc1ccc(NC(=O)c2cc(C)nc3ccccc23)c(OC)c1`: the IC50 was 11.7 µM. Further, the IC50 under setting [1] turned out to be 31.6 µM. This molecule also had a 90% effect concentration (IC90) under setting [2] of 69.1 µM. Under setting [3], this molecule showed a concentration for an effect of 90% (IC90) of 12.9 µM.

With `COc1ccc(NC(=O)CN2CCN(C3c4ccccc4-c4ccccc43)CC2)c(OC)c1`, the IC50 is > 100 µM (inactive). For the same molecule, under setting [1], the 50% inhibitory concentration (IC50) was above 100 µM. The concentration for an effect of 90% (IC90) under setting [2] was above 100 µM. This molecule also came in with a concentration for an effect of 90% (IC90) under setting [3] above 100 µM.

In the case of `CC(C)C[C@H](NC(=O)c1nc[nH]c1C(=O)N1CCN(C(=O)OC(C)(C)C)CC1)C(=O)OCc1ccccc1`, the IC50 is 48.8 µM (inactive). The IC50 under setting [1] was 49.4 µM. Under setting [2], this molecule showed a concentration for an effect of 90% (IC90) of 56.1 µM. Moreover, under setting [3], the 90% effect concentration (IC90) amounted to 54.9 µM.

As for `O=C(O)CSc1ncnc2c1sc1nc(-c3ccccc3)c3c(c12)CCC3`, the IC50 is 12.2 µM. The 50% inhibitory concentration (IC50) under setting [1] is 61.9 µM. The concentration for an effect of 90% (IC90) under setting [2] was found to be 87.4 µM. Besides, the 90% effect concentration (IC90) under setting [3] is 14.2 µM.

In the case of `CCCn1nc2cc(C(=O)NCCCCc3ccccc3)ccc2c1OCC`, the IC50 was 90.1 µM (inactive). The molecule further yielded a half-inhibitory concentration (IC50) under setting [1] of 92.3 µM. Moreover, the IC90 under setting [2] is above 100 µM. This molecule also returned an IC90 under setting [3] above 100 µM.

As for `Cc1nc(Nc2ccc(Cl)cc2Cl)sc1C(=O)Nc1ccccc1`, the IC50 is > 100 µM (inactive). Under setting [1], this molecule registered an IC50 above 100 µM. In addition, the IC90 under setting [2] is above 100 µM. The IC90 under setting [3] was above 100 µM.

As to `CCN(CC)c1ccc(C=N/C(C#N)=C(\N)C#N)cc1`, the IC50 was 16.9 µM. The same molecule showed an IC50 under setting [1] above 100 µM. This molecule also had an IC90 under setting [2] above 100 µM. Under setting [3], this molecule showed a concentration for an effect of 90% (IC90) above 100 µM.

In the case of `COc1ccc(NC(=O)COC(=O)Cc2ccc(-c3ccccc3)cc2)c(OC)c1`, the IC50 was > 100 µM (inactive). In addition, the 50% inhibitory concentration (IC50) under setting [1] is above 100 µM. Further, under setting [2], the IC90 was above 100 µM. The same molecule returned an IC90 under setting [3] above 100 µM.

On to `COc1ccccc1NC(=O)COc1ccc(CO)cc1Cl`, for which the IC50 was > 100 µM (inactive). Under setting [1], this molecule returned an IC50 above 100 µM. This molecule also came in with an IC90 under setting [2] above 100 µM. This molecule also yielded an IC90 under setting [3] above 100 µM.

As for `CCOc1ccc(S(=O)(=O)n2nnc3ccccc32)cc1C(C)C`, the IC50 was > 100 µM (inactive). This molecule also showed a half-maximal inhibitory concentration (IC50) under setting [1] above 100 µM. Under setting [2], this molecule yielded a concentration for an effect of 90% (IC90) above 100 µM. Under setting [3], this molecule yielded an IC90 above 100 µM.

`CCOC(=O)c1cc(-c2ccc(C)cc2)n(CCC(=O)N2CCN(c3ccccn3)CC2)c1C`: the IC50 is 69.5 µM (inactive). The same molecule registered a half-maximal inhibitory concentration (IC50) under setting [1] of 89.4 µM. Under setting [2], this molecule displayed an IC90 above 100 µM. Under setting [3], this molecule displayed an IC90 above 100 µM.

Take `CC(C)CCSc1nc(N2CCOCC2)c2c(c1C#N)CC(C)(C)OC2`: the IC50 was 78.2 µM (inactive). Further, the half-maximal inhibitory concentration (IC50) under setting [1] was above 100 µM. The molecule further showed a 90% effect concentration (IC90) under setting [2] above 100 µM. Under setting [3], this molecule displayed a 90% effect concentration (IC90) above 100 µM.

With `CCCC(=O)N1CCN(c2ccc(NC(=S)NC(=O)CC)cc2)CC1`, the IC50 is 62.1 µM (inactive). Under setting [1], this molecule returned a half-maximal inhibitory concentration (IC50) above 100 µM. In addition, the IC90 under setting [2] is above 100 µM. Moreover, under setting [3], the IC90 is above 100 µM.

On to `COc1cc(C(=O)Nc2cccc(-c3cn4cccnc4n3)c2)cc(OC)c1OC`, for which the half-inhibitory concentration (IC50) is 10.9 µM. Under setting [1], the IC50 is 35 µM. The same molecule displayed a concentration for an effect of 90% (IC90) under setting [2] above 100 µM. This molecule displayed a concentration for an effect of 90% (IC90) under setting [3] of 30.2 µM.

Take `Cn1c2ccccc2c(=O)c2cc(C#CC3(O)CCCCC3)ccc21`: the IC50 was > 100 µM (inactive). Under setting [1], this molecule displayed a concentration for half-maximal inhibition (IC50) above 100 µM. Also, the IC90 under setting [2] was above 100 µM. In addition, under setting [3], the concentration for an effect of 90% (IC90) was above 100 µM.

Consider `Cc1cc2c(N=NC(=O)C3CC3c3ccccc3)c(O)[nH]c2cc1Br` (stereo not drawn), for which the IC50 is > 100 µM (inactive). Further, the 50% inhibitory concentration (IC50) under setting [1] was above 100 µM. The IC90 under setting [2] was above 100 µM. In addition, under setting [3], the concentration for an effect of 90% (IC90) was above 100 µM.

Consider `S=c1[nH]cnc2scc(-c3ccc(Br)cc3)c12`, for which the IC50 is 28.8 µM. Under setting [1], this molecule showed an IC50 of 98.8 µM. Under setting [2], the 90% effect concentration (IC90) was above 100 µM. The same molecule gave a concentration for an effect of 90% (IC90) under setting [3] above 100 µM.

On to `Nc1nc2ccccc2n1C(=O)c1cccs1`, for which the half-maximal inhibitory concentration (IC50) was 5.84 µM. The molecule further yielded an IC50 under setting [1] of 42.8 µM. Moreover, the IC90 under setting [2] was above 100 µM. This molecule returned an IC90 under setting [3] above 100 µM.

`CCOC(=O)CSc1nnc(CNC(=O)c2cccs2)n1CCc1ccccc1`: the IC50 is 20.1 µM (inactive). In addition, under setting [1], the half-inhibitory concentration (IC50) amounted to 35.2 µM. The 90% effect concentration (IC90) under setting [2] was 55.8 µM. The IC90 under setting [3] turned out to be 49.5 µM.

On to `COc1ccc2cc(C3=CCCCC3)ncc2c1`, for which the IC50 is 74.8 µM (inactive). For the same molecule, the IC50 under setting [1] was above 100 µM. Moreover, the concentration for an effect of 90% (IC90) under setting [2] is above 100 µM. The IC90 under setting [3] was above 100 µM.

Consider `Cc1ccc(CNC(=O)c2cn(C)c3ccc(S(=O)(=O)N4CCOCC4)cc3c2=O)cc1`, for which the IC50 was > 50 µM (inactive). This molecule also had a half-maximal inhibitory concentration (IC50) under setting [1] above 100 µM. For the same molecule, the IC90 under setting [2] was above 100 µM. For the same molecule, the IC90 under setting [3] was above 50 µM.

With `Cc1cccc(C)c1NC(=O)C1CC2CCC1C2` (stereo not drawn), the IC50 is > 100 µM (inactive). The molecule also came in with an IC50 under setting [1] above 100 µM. Besides, the 90% effect concentration (IC90) under setting [2] is above 100 µM. The molecule further registered an IC90 under setting [3] above 100 µM.

Regarding `N#Cc1ccc(C23CC4(C2)[C@H](CN(Cc2cccnc2)[C@@H]4c2ccccc2)C3c2ccccc2)cc1` (stereo partly drawn), the IC50 is 56.2 µM (inactive). Under setting [1], this molecule had an IC50 of 72.8 µM. This molecule registered a 90% effect concentration (IC90) under setting [2] above 100 µM. Moreover, under setting [3], the 90% effect concentration (IC90) is above 100 µM.
